# “Also recorded” adds a separate entry of the source.
# Key:
# [1] = Gravimetric solubility; assay type: physicochemical; settings: 20 °C, organic solvent or mixture, thermodynamic from solid, RT, read-out: Gravimetric Solubility at RT
# Description: Additional solids or solvents were added to visual solubility samples with vials less than 100 mg/mL to produce slurries at 20 and 50° C. for the subsequent equilibrium solubility assessment. The slurries were stirred at 20 and 50° C. overnight, filtered through 0.2 μm syringe filters and evaporated to dryness under reduced pressure at ambient temperature. Gravimetric solubility was calculated by dividing the dry solids residue mass (mg) by the solvent mass (g). The mg/g solubility values were then converted to mg/mL using solvent density.
# The solubility of Group D acetone and DMF solvates were assessed in the corresponding solvents.
# [2] = assay type: physicochemical; settings: for Time of conversion to Form C in the solid-state: ambient temperature
# Description: Powder X-Ray Diffraction (PXRD). PXRD diffractograms were acquired on a PANalytical X'Pert Pro diffractometer using Ni-filtered Cu Ka (45 kV/40 mA) radiation and a step size of 0.03° 2θ and X'celerator™ RTMS (Real Time Multi-Strip) detector. Configuration on the incidental beam side: variable divergence slits (10 mm irradiated length), 0.04 rad Soller slits, fixed anti-scatter slit (0.50 o), and 10 mm beam mask. Configuration on the diffracted beam side: variable anti-scatter slit (10 mm observed length) and 0.04 rad Soller slit. Samples were mounted flat on zero-background Si wafers.
# Group D solvates converted to Form C in the solid-state at different rates, depending on the solvent included. […] No phase-pure Group D was isolated from acetone-containing solvents, indicating the unstable nature of this solvate.
# [3] = Polymorph screen of Exo-impurity; assay type: physicochemical
# [4] = Competitive ripening (relative thermodynamic stability of non-solvated forms)
# [5] = D9 solubility in the liquors at isolation temperature; assay type: physicochemical; settings: organic solvent or mixture, thermodynamic from solid
# Description: At the end of each experiment, suspensions were equilibrated at the isolation temperature (25 or 5° C.) for at least 18 hours and the solids and liquors separated by centrifugation at the isolation temperature. The Exo/D9/D8 ratio (Exo-D9-THC-naphthoylester impurity/D9-THC-naphthoylester/D8-THC-naphthoylester) was determined in both the isolated solids and the liquors, from which the % Exo-depletion in the isolated solids was calculated. Several solids were also isolated at elevated temperatures to assess the impact of the isolation temperature on Exo-impurity depletion.
# In addition, the solubility of D9 in the liquors was determined in most of the explored solvents and used to estimate the yield.
# [6] = Experiment No. 20, Nitromethane, seed Form E
# [7] = Experiment No. 21, DMSO, seed Group D
# [8] = Experiment No. 22, Acetone, seed Group D
# [9] = Experiment No. 23, MeCN, seed Group D
# [10] = Experiment No. 24, P-Xylene/MeOH (10:90), seed Form E
compound,measurement,setting,value
CCCCCc1cc(OC(=O)c2ccc3ccccc3c2)c2c(c1)OC(C)(C)[C@@H]1CCC(C)=C[C@@H]21 [Acetone solvate of Group D],solubility,"[1]; solvent Acetone, Batch 7",98 mg/mL
same,Stability of solvate,[2]; no phase-pure Group D isolated from acetone-containing solvents,unstable
CCCCCc1cc(OC(=O)c2ccc3ccccc3c2)c2c(c1)OC(C)(C)[C@@H]1CCC(C)=C[C@@H]21 [DMF solvate of Group D],solubility,"[1]; solvent DMF, Batch 8",95 mg/mL
same,Time of conversion to Form C in the solid-state,[2],overnight
CCCCCc1cc(OC(=O)c2ccc3ccccc3c2)c2c(c1)OC(C)(C)[C@@H]1CCC(C)=C[C@@H]21 [DMSO solvate],Time of conversion to Form C in the solid-state,[2],within five days
"C=C1CC[C@@H]2[C@@H](C1)c1c(OC(=O)c3ccc4ccccc4c3)cc(CCCCC)cc1OC2(C)C [Exo, (6aR,10aR)-6,6-dimethyl-9-methylene-3-pentyl-6a,7,8,9,10,10a-hexahydro-6H-benzo[c]chromen-1-yl 2-naphthoate]",Form Isolated at 5° C. 6 D (Exo),[3]; [6],Input
same,Form Isolated at RT 5 D (Exo),[3]; [6],Input
same,Form Isolated at 5° C. 6 D (Exo),[3]; [7],Input
same,Form Isolated at RT 5 D (Exo),[3]; [7],Input
same,Form Isolated at 5° C. 6 D (Exo),[3]; [8],Input
same,Form Isolated at RT 5 D (Exo),[3]; [8],No
same,Form Isolated at 5° C. 6 D (Exo),[3]; [9],Input
same,Form Isolated at RT 5 D (Exo),[3]; [9],Input
same,Form Isolated at 5° C. 6 D (Exo),[3]; [10],Input
same,Form Isolated at RT 5 D (Exo),[3]; [10],Input
same,Polymorphism,[3]; seeded slurries at RT and 5° C.,No evidence of polymorphism
"CCCCCc1cc(OC(=O)c2ccc3ccccc3c2)c2c(c1)OC(C)(C)[C@@H]1CCC(C)=C[C@@H]21 [Form F, (6aR,10aR)-6a,7,8,10a-tetrahydro-6,6,9-trimethyl-3-pentyl-6H-dibenzo[b,d]pyran-1-yl ester]",Form conversion by PXRD,[2]; wet-cake after air-drying for five minutes at ambient,converted to Form E
same,Nature (thermodynamic stability of crystal form),[4]; Table 6 summary,Transient
"CCCCCc1cc(OC(=O)c2ccc3ccccc3c2)c2c(c1)OC(C)(C)[C@@H]1CCC(C)=C[C@@H]21 [Form H, (6aR,10aR)-6a,7,8,10a-tetrahydro-6,6,9-trimethyl-3-pentyl-6H-dibenzo[b,d]pyran-1-yl ester]",solubility,"[5]; crystallisation liquors over suspended solid, 5 °C, batch 5, Toluene/MeOH (3:7), seed G, heat T 25, isolation T 5, 10.0 mL/g, SP 11",71.4 mg/mL
same,solubility,"[5]; crystallisation liquors over suspended solid, 25 °C, batch 5, EtOAC/EtOH (2:8), seed H, heat T 50, isolation T 25, 8.0 mL/g, SP 17, Exp 47",36.2 mg/mL
same,solubility,"[5]; crystallisation liquors over suspended solid, 25 °C, batch 5, Toluene/EtOH (1:9), seed G/H, heat T 55, isolation T 25, 9.9 mL/g, SP 16, Exp 46",11.1 mg/mL
same,solubility,"[5]; crystallisation liquors over suspended solid, 25 °C, batch 5, Toluene/EtOH (1:9), seed H, heat T 40, isolation T 25, 10.0 mL/g, SP 19, Exp 54",19.6 mg/mL
same,solubility,"[5]; crystallisation liquors over suspended solid, 25 °C, batch 5, Toluene/EtOH (2:8), seed H, heat T 25, isolation T 25, 5.0 mL/g, SP 18, Exp 52",36.2 mg/mL
same,solubility,"[5]; crystallisation liquors over suspended solid, 25 °C, batch 5, Toluene/MeOH (1:9), seed H, heat T 50, isolation T 25, 15.0 mL/g, SP 17, Exp 48",6.8 mg/mL
same,solubility,"[5]; crystallisation liquors over suspended solid, 25 °C, batch 5, Toluene/MeOH (2:8), seed H, heat T 50, isolation T 25, 6.0 mL/g, SP 17, Exp 41",25.1 mg/mL
same,solubility,"[5]; crystallisation liquors over suspended solid, 25 °C, batch 5, Toluene/MeOH (3:7), seed G, heat T 25, isolation T 25, 5.5 mL/g, SP 7",69.9 mg/mL
same,solubility,"[5]; crystallisation liquors over suspended solid, 25 °C, batch 5, Toluene/MeOH (3:7), seed G, heat T 25, isolation T 25, 8.0 mL/g, SP 7",80.2 mg/mL
same,solubility,"[5]; crystallisation liquors over suspended solid, 25 °C, batch 5, Toluene/MeOH (3:7), seed G, heat T 25, isolation T 25, 10.0 mL/g, SP 7",64.7 mg/mL
same,solubility,"[5]; liquors of the equilibrated crystallisation suspension, 5 °C, Toluene/MeOH (3:7), isolation 5 °C, SP 11, 10.0 mL/g, read-out: D9 Solubility at Isolation T",71.4 mg/mL
same,solubility,"[5]; liquors of the equilibrated crystallisation suspension, 25 °C, EtOAC/EtOH (2:8), isolation 25 °C, SP 17, 8.0 mL/g, read-out: D9 Solubility at Isolation T",36.2 mg/mL
same,solubility,"[5]; liquors of the equilibrated crystallisation suspension, 25 °C, EtOAc/MeOH (1:3), isolation 25 °C, SP 21, 10.0 mL/g, read-out: D9 Solubility at Isolation T",8.9 mg/mL
same,solubility,"[5]; liquors of the equilibrated crystallisation suspension, 25 °C, Toluene/EtOH (1:9), isolation 25 °C, SP 16, 9.9 mL/g, read-out: D9 Solubility at Isolation T",11.1 mg/mL
same,solubility,"[5]; liquors of the equilibrated crystallisation suspension, 25 °C, Toluene/EtOH (1:9), isolation 25 °C, SP 19, 10.0 mL/g, read-out: D9 Solubility at Isolation T",19.6 mg/mL
same,solubility,"[5]; liquors of the equilibrated crystallisation suspension, 25 °C, Toluene/EtOH (2:8), isolation 25 °C, SP 18, 5.0 mL/g, read-out: D9 Solubility at Isolation T",36.2 mg/mL
same,solubility,"[5]; liquors of the equilibrated crystallisation suspension, 25 °C, Toluene/MeOH (1:9), isolation 25 °C, SP 17, 15.0 mL/g, read-out: D9 Solubility at Isolation T",6.8 mg/mL
same,solubility,"[5]; liquors of the equilibrated crystallisation suspension, 25 °C, Toluene/MeOH (2:8), isolation 25 °C, SP 17, 6.0 mL/g, read-out: D9 Solubility at Isolation T",25.1 mg/mL
same,solubility,"[5]; liquors of the equilibrated crystallisation suspension, 25 °C, Toluene/MeOH (3:7), isolation 25 °C, SP 7, 5.5 mL/g, read-out: D9 Solubility at Isolation T",69.9 mg/mL
same,solubility,"[5]; liquors of the equilibrated crystallisation suspension, 25 °C, Toluene/MeOH (3:7), isolation 25 °C, SP 7, 8.0 mL/g, read-out: D9 Solubility at Isolation T",80.2 mg/mL
same,solubility,"[5]; liquors of the equilibrated crystallisation suspension, 25 °C, Toluene/MeOH (3:7), isolation 25 °C, SP 7, 10.0 mL/g, read-out: D9 Solubility at Isolation T",64.7 mg/mL
same,solubility,"[5]; liquors of the equilibrated crystallisation suspension, 25 °C, batch 5, EtOAc/MeOH (1:3), seed H, heat T 55, isolation T 25, 10.0 mL/g, SP 21, Exp 34",8.9 mg/mL
same,Relative thermodynamic stability,"[4]; at 5° C., ripening incomplete within 29 days",likely the most-stable form
same,Relative thermodynamic stability,"[4]; between 25-60° C., non-solvate forming solvents",most stable non-solvated crystal form; also recorded: thermodynamically most-stable form

# Reference: patent publication US12522576B2, “Polymorphs of D9-THC naphthoylester” (priority 2019, dated 2026)
